{"source": "patent US7416741B2", "about": "“Copper lowering treatment of inflammatory and fibrotic diseases” (The Regents of the University of Michigan, priority 2002, dated 2008)", "key": {"[1]": {"tested_on": "vascular endothelial growth factor (VEGF)", "assay": "Retinopathy of prematurity in newborn mice", "assay_type": "in vivo, mouse", "conditions": "hyperoxia then room air", "experimental": "The present invention also contemplates the antiangiogenic therapeutic effects of TM in diseases of neovascularization besides cancer (e.g., animal models of retinopathy). In retinopathy of prematurity, newborn mice exposed to hyperoxia for five days develop a marked retinopathy after four days exposure to room air, with a peak of a major angiogenic stimulus, vascular endothelial growth factor (VEGF), at 24 hours."}, "rats": {"tested_on": "rats", "conditions": "cited from earlier work"}, "cancer patients": {"tested_on": "cancer patients", "conditions": "clinical phase ½ study of metastatic and advanced cancers; cited from earlier work"}, "serum ceruloplasmin (Cp)": {"tested_on": "serum ceruloplasmin (Cp)", "assay": "Copper status by serum ceruloplasmin (oxidase activity) in mice", "assay_type": "in vivo, mouse", "conditions": "for Ceruloplasmin Values: Ex 1 Exp 2", "from_the_text": "Copper status. In the presence of TM therapy, copper status is difficult to assess by measuring serum copper directly, since a slowly turning over tripartite complex of TM, copper, and albumin accumulates, causing the serum copper to be elevated even though availability of copper is decreasing. However, the inventors have previously determined that serum ceruloplasmin (Cp) is a good surrogate marker of copper status (G J Brewer et al., Clin. Cancer, 6: 1-10 [2000]), because the liver secretes this copper containing protein into the blood at a rate dependent upon copper availability. Copper status was followed by assaying serum ceruloplasmin (Cp), by measuring its oxidase activity (K H Schosinsky et al., Clin. Chem., 20(12)1556-1563 [1974]). Blood was obtained from the tail vein of the mice. To avoid excessive bleeding, only one mouse from each group was bled at any time point during the study, and mice were rotated so that different mice were bled at the different time points. A Cp assay in all mice was done at time of sacrifice.\nCopper status. In the presence of TM therapy, copper status cannot be assessed by direct measurement of serum copper because of the accumulation of a tripartite complex of TM, copper, and albumin that turns over slowly, causing the serum copper to be increased even though availability of copper is decreasing. […] Copper status was monitored by assaying serum ceruloplasmin on the basis of its oxidase activity in blood from the tail vein. To avoid excessive bleeding, one mouse from each group was bled at each time point; mice were rotated so that different mice were bled. A ceruloplasmin assay was conducted in each mouse when it was killed."}, "[2]": {"tested_on": "bleomycin mouse model of pulmonary fibrosis", "assay": "Lung hydroxyproline assay in the bleomycin mouse model of pulmonary fibrosis", "assay_type": "in vivo", "conditions": "for Hydroxyproline: sacrifice day 21", "from_the_text": "In the bleomycin mouse model, which is known to be dependent upon the TGFβ pathway, the intratracheal administration of bleomycin leads to the development of severe lung inflammation followed by fibrosis in 2-3 weeks, at which time the mice are sacrificed. Fibrosis is quantified in lung tissue by measuring hydroxyproline, a key component of the collagen that is deposited in fibrotic lung.\nMice. Female CBA/J mice at 8-10 weeks of age were from the Jackson Laboratories (Bar Harbor, Me.). These mice weighed an average of 21.4 g at the start of experiments, with a standard deviation of 1.7 g.\nBleomycin treatment. This was undertaken on day 0 by endotracheal instillation through the oral cavity after exposure of the airway by pulling the tongue. Each mouse received 0.001 units of bleomycin (Bristol-Myers, Evansville, Ind.)/gm body weight in 30 μl of sterile saline, while control mice received an equal volume of sterile saline only.\nTM treatment experiments. TM was given in 0.25 ml of water by intragastric gavage once daily, in the doses and times indicated in the various studies as described below.\nHydroxyproline assay. The extent of fibrosis was assessed by assaying hydroxyproline content of whole lung homogenates at the time of sacrifice as previously described (M Gharaee-Kermani et al., J. Leukoc. Biol., 64:657-666 [1998]). Results are expressed as μg hydroxyproline/lung (the lung tissue included both lungs).\nHydroxyproline assay. The extent of fibrosis was assessed by assaying hydroxyproline content of whole-lung homogenates at the time of sacrifice as described in Gharaee-Kermani, et al., J. Leukoc. Biol., 64:657-666 (1998). Hydroxyproline was expressed as micrograms of hydroxyproline per mouse lung (the lung tissue included both lungs)."}, "[3]": {"tested_on": "carbon tetrachloride (CT) mouse model", "assay": "Serum ALT in the carbon tetrachloride (CT) mouse model of liver damage", "assay_type": "in vivo", "conditions": "Ex 6; TM from week 5; sacrifice week 12; p<0.0008; protection only partial", "experimental": "The carbon tetrachloride (CT) mouse model produces much more liver fibrosis (cirrhosis) than the Con A model. In this model carbon tetrachloride is injected intraperitoneally twice weekly, and after 12 weeks, a well-established cirrhosis should be present. This can be evaluated histologically, and can be quantitated by measuring liver hydroxyproline, a major amino acid in collagen. The TM was started in TM treated animals at the beginning of week 5 and the animals were sacrificed at week 12.\nThere were 4 animals in the CT group, 4 in the CT/TM group, 2 in the olive oil/TM group, and 1 in the TM group. Since there were so few animals in the last two groups, and since their data were generally similar, they were combined."}, "IL-1β": {"tested_on": "IL-1β", "assay": "Plasma IL-1β in Con A treated mice", "assay_type": "in vivo, mouse", "conditions": "Ex 5 Exp 3; p=0.15", "from_the_text": "In a third experiment, two Con A injections one week apart were given to 10 mice. Five of the mice had begun TM treatment 5 days prior to the first injection. All the mice were sacrificed 2 hrs after the last Con A injection."}}, "note": "Read-outs that look alike come from different tables or passages of the source.", "data": [{"smiles": "[SH-].[SH-].[S]=[Mo]=[S]", "note": "[TM, tetrathiomolybdate]", "values": [{"measurement": "VEGF peak", "setting": "[1]", "value": "strong inhibition"}, {"measurement": "retinal neovascularization", "setting": "[1]", "value": "dramatic reduction"}, {"measurement": "effects on copper levels (plasma ceruloplasmin, liver and kidney copper)", "setting": "rats; approximately 6 mg of TM per kilogram of diet", "value": "substantial effects on copper levels"}, {"measurement": "anemia", "setting": "rats; approximately 12 mg of TM per kilogram of diet", "value": "Mild anemia"}, {"measurement": "skeletal lesions", "setting": "rats; approximately 12 mg of TM", "value": "one of six animals"}, {"measurement": "anemia", "setting": "rats; approximately 18 mg of TM", "value": "severe"}, {"measurement": "growth rate", "setting": "rats; approximately 18 mg of TM", "value": "markedly impaired"}, {"measurement": "skeletal lesions", "setting": "rats; approximately 18 mg of TM", "value": "all animals had skeletal lesions"}, {"measurement": "average freedom from progression in evaluable patients", "setting": "cancer patients", "value": 11, "unit": "months"}, {"measurement": "Ceruloplasmin", "setting": "serum ceruloplasmin (Cp); Ex 1 Exp 1, Bleomycin/TM group, sacrifice day 21", "value": "13.9 ± 3.3", "unit": "I.U"}, {"measurement": "mean ceruloplasmin relative to saline controls", "setting": "serum ceruloplasmin (Cp); Ex 1 Exp 1, TM alone (group 4)", "value": "about 80%"}, {"measurement": "Ceruloplasmin", "setting": "serum ceruloplasmin (Cp); Ex 1 Exp 1, TM only group, sacrifice day 21", "value": "18.1 ± 3.4", "unit": "I.U"}, {"measurement": "mean ceruloplasmin level relative to bleomycin animals", "setting": "serum ceruloplasmin (Cp); Ex 1 Exp 1, bleomycin/TM mice (group 3)", "value": "about 55%"}, {"measurement": "Ceruloplasmin Values", "setting": "serum ceruloplasmin (Cp); TM 0.3 mg/day/mouse, day 14, single mouse", "value": 23.6, "unit": "International Units"}, {"measurement": "Ceruloplasmin Values", "setting": "serum ceruloplasmin (Cp); TM 0.3 mg/day/mouse, day 21 (sacrifice), mean and standard error of four mice", "value": "5.4 ± 2.7", "unit": "International Units"}, {"measurement": "Ceruloplasmin Values", "setting": "serum ceruloplasmin (Cp); TM 0.5 mg/day/mouse, day 8, single mouse", "value": 14.4, "unit": "International Units"}, {"measurement": "Ceruloplasmin Values", "setting": "serum ceruloplasmin (Cp); TM 0.5 mg/day/mouse, day 14, single mouse", "value": 10.6, "unit": "International Units"}, {"measurement": "Ceruloplasmin Values", "setting": "serum ceruloplasmin (Cp); TM 0.5 mg/day/mouse, day 21, mean and SE of four mice", "value": "4.5 ± 2.7", "unit": "International Units"}, {"measurement": "Ceruloplasmin Values", "setting": "serum ceruloplasmin (Cp); TM 0.7 mg/day/mouse, day 8, single mouse", "value": 12.6, "unit": "International Units"}, {"measurement": "Ceruloplasmin Values", "setting": "serum ceruloplasmin (Cp); TM 0.7 mg/day/mouse, day 14, single mouse", "value": 15.5, "unit": "International Units"}, {"measurement": "Ceruloplasmin Values", "setting": "serum ceruloplasmin (Cp); TM 0.7 mg/day/mouse, day 21, mean and SE of four mice", "value": "4.7 ± 2.2", "unit": "International Units"}, {"measurement": "Ceruloplasmin Values", "setting": "serum ceruloplasmin (Cp); TM 0.9 mg/day/mouse, day 8, single mouse", "value": 0.6, "unit": "International Units"}, {"measurement": "Ceruloplasmin Values", "setting": "serum ceruloplasmin (Cp); TM 0.9 mg/day/mouse, day 14, single mouse", "value": 3.7, "unit": "International Units"}, {"measurement": "Ceruloplasmin Values", "setting": "serum ceruloplasmin (Cp); TM 0.9 mg/day/mouse, day 21, mean and SE of four mice", "value": "1.8 ± 0.7", "unit": "International Units"}, {"measurement": "Ceruloplasmin Values", "setting": "serum ceruloplasmin (Cp); TM maintenance 0.3 mg/day/mouse, day 8, single mouse", "value": 20.3, "unit": "International Units"}, {"measurement": "mean Cp levels in TM treated groups relative to non-TM treated groups", "setting": "serum ceruloplasmin (Cp); Ex 2 Exp 1, TM 1.2 mg/day 4 days before bleomycin then 0.9 mg/day, sacrifice day 7", "value": "approximately half"}, {"measurement": "mean Cp level of bleomycin/TM group as % of the bleomycin group mean", "setting": "serum ceruloplasmin (Cp); Ex 2 Exp 2, TM started 5 days after bleomycin, sacrifice day 21", "value": 38, "unit": "%"}, {"measurement": "mean Cp of TM control group as % of the saline control group mean", "setting": "serum ceruloplasmin (Cp); Ex 2 Exp 2, sacrifice day 21", "value": 50, "unit": "%"}, {"measurement": "serum Cp levels relative to baseline levels", "setting": "serum ceruloplasmin (Cp); daily gavage of 0.7 mg TM/mouse", "value": "25-50%"}, {"measurement": "Hydroxyproline", "setting": "[2]; Ex 1 Exp 1, Bleomycin/TM group", "value": "162 ± 12", "unit": "μg/lung"}, {"measurement": "fibrosis as measured by hydroxyproline assay", "setting": "[2]; Ex 1 Exp 1, TM before bleomycin", "value": "almost completely abrogated fibrosis"}, {"measurement": "Hydroxyproline", "setting": "[2]; Ex 1 Exp 1, TM only group", "value": "193 ± 5", "unit": "μg/lung"}, {"measurement": "Hydroxyproline (Mean ± SE)", "setting": "[2]; Ex 1 Exp 2, Bleomycin Group, 0.3 mg TM/mouse/day, day 21", "value": "232 ± 4", "unit": "μg hydroxyproline/lung"}, {"measurement": "Hydroxyproline (Mean ± SE)", "setting": "[2]; Ex 1 Exp 2, Bleomycin Group, 0.5 mg TM/mouse/day, day 21", "value": "197 ± 15", "unit": "μg hydroxyproline/lung"}, {"measurement": "Hydroxyproline (Mean ± SE)", "setting": "[2]; Ex 1 Exp 2, Bleomycin Group, 0.7 mg TM/mouse/day, day 21", "value": "172 ± 22", "unit": "μg hydroxyproline/lung"}, {"measurement": "Hydroxyproline (Mean ± SE)", "setting": "[2]; Ex 1 Exp 2, Bleomycin Group, 0.9 mg TM/mouse/day, day 21", "value": "157 ± 14", "unit": "μg hydroxyproline/lung"}, {"measurement": "Hydroxyproline (Mean ± SE)", "setting": "[2]; Ex 1 Exp 2, Control Group (Saline only), 0.3 mg TM/mouse/day", "value": "132 ± 3", "unit": "μg hydroxyproline/lung"}, {"measurement": "Hydroxyproline (Mean ± SE)", "setting": "[2]; Ex 1 Exp 2, Control Group (Saline only), 0.5 mg TM/mouse/day", "value": "130 ± 5", "unit": "μg hydroxyproline/lung"}, {"measurement": "Hydroxyproline (Mean ± SE)", "setting": "[2]; Ex 1 Exp 2, Control Group (Saline only), 0.7 mg TM/mouse/day", "value": "152 ± 10", "unit": "μg hydroxyproline/lung"}, {"measurement": "Hydroxyproline (Mean ± SE)", "setting": "[2]; Ex 1 Exp 2, Control Group (Saline only), 0.9 mg TM/mouse/day", "value": "130 ± 8", "unit": "μg hydroxyproline/lung"}, {"measurement": "protection against bleomycin-induced fibrosis as measured by hydroxyproline accumulation", "setting": "[2]; Ex 1 Exp 2, TM 0.3 to 0.9 mg", "value": "dose dependent"}, {"measurement": "effect of TM treatment alone on hydroxyproline levels", "setting": "[2]; Ex 1 Exp 2, no bleomycin", "value": "no effect of TM treatment alone on hydroxyproline levels"}, {"measurement": "hydroxyproline production", "setting": "[2]; Ex 1 Exp 3, TM given before bleomycin or started at day 4 or 7 after, 1.2 then 0.9 mg/mouse/day", "value": "significant suppression of hydroxyproline production"}, {"measurement": "effect of TM alone on hydroxyproline levels", "setting": "[2]; Ex 1 Exp 3, no bleomycin", "value": "no effect of TM alone on hydroxyproline levels"}, {"measurement": "lung hydroxyproline levels, bleomycin-induced increase", "setting": "[2]; Ex 2 Exp 2, TM from day 5, day 21", "value": "completely and significantly inhibited the increase"}, {"measurement": "serum ALT, CT/TM group mean vs CT group", "setting": "[3]", "value": "significantly lower"}, {"measurement": "plasma levels of IL-1β", "setting": "IL-1β", "value": "close to being significantly lower"}]}]}
